Measurements as given in paper PMC9461663, “Covalent Inhibition of Pyruvate Kinase M2 Reprograms Metabolic and Inflammatory Pathways in Hepatic Macrophages against Non-alcoholic Fatty Liver Disease” (International Journal of Biological Sciences, 2022).

Molecular target: T1, Pyruvate kinase M2 (PKM2) (Mus musculus, UniProt P52480)
T1 construct: gene Pkm; full length recombinant mouse PKM2 (M2 isoform; pET-28a, from pLHCX-Flag-mPKM2)
Assay: LC-MS/MS peptide mapping of the covalent adduct on recombinant PKM2; competition with biotin probe; pyruvate kinase activity assay (IC50)
Type: biochemical

T1 sequence (P52480 whole entry, canonical isoform): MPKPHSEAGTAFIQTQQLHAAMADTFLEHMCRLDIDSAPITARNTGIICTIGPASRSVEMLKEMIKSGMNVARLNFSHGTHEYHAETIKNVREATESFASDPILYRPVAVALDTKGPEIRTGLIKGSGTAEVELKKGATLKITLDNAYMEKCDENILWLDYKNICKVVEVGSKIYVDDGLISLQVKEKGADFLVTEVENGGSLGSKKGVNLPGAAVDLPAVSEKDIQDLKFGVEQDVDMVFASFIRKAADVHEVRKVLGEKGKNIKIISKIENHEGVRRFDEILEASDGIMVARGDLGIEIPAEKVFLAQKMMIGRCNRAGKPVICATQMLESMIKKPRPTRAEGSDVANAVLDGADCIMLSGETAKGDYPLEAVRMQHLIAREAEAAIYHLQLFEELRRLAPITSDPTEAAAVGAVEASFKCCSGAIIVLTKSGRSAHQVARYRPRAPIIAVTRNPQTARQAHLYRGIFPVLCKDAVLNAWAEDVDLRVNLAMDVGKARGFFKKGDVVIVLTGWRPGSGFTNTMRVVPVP

For `CC1=C(O)C(=O)C=C2C1=CC=C1[C@@]2(C)CC[C@@]2(C)[C@@H]3C[C@](C)(C(=O)O)CC[C@]3(C)CC[C@]12C` [celastrol], the IC50 was 305 µM.
